Where two headings read alike, the source gives them in different places.
Columns and labels:
[1] = format: in vivo, human; conditions: for CL/F / Fe0‐12h (fraction excreted in urine) / Accumulation ratio (based on AUCτ): geometric mean (geometric CV%); for Tmax: human, plasma, oral, range
[2] = In vitro Caco-2 permeability; format: in vitro ADME; conditions: human
[3] = MAD day 1, single 100 mg tablet
[4] = MAD day 1, single 200 mg tablet
[5] = MAD day 14, 50 mg tablet b.i.d.
[6] = MAD day 14, 100 mg tablet b.i.d.
[7] = MAD day 14, 200 mg tablet b.i.d.

With `O[C@H]1CCCN[C@@H]1CCCn1cnc2c(Cl)c(Cl)ccc21` [Bersiporocin] the “dose adjusted plasma exposure, CYP2D6 poor metabolizer compared to the median value in other phenotypes” value ([1]; MAD) was “six‐ to nine‐fold higher”, the CL/F ([1]; MAD day 1, single 25 mg tablet) was 175.57 (70.55) L/h and the “Fe0‐12h (fraction excreted in urine)” value ([1]; MAD day 1, single 25 mg tablet) was 6.23 (44.75) %. The CL/F ([1]; MAD day 1, single 50 mg tablet) was 292.89 (26.44) L/h, the “Fe0‐12h (fraction excreted in urine)” value ([1]; MAD day 1, single 50 mg tablet) was 6.09 (95.30) % and the CL/F [1, 3] was 261.98 (49.54) L/h. For the same compound, the “Fe0‐12h (fraction excreted in urine)” value [1, 3] was 8.20 (27.21) %, the CL/F [1, 4] was 266.78 (18.62) L/h and the “Fe0‐12h (fraction excreted in urine)” value [1, 4] was 8.44 (50.39) %. For the same compound, the “Accumulation ratio (based on AUCτ)” value ([1]; MAD day 14, 25 mg tablet b.i.d.) was 1.94 (26.34), the “Accumulation ratio (based on AUCτ)” value [1, 5] was 2.33 (31.42) and the “Fe0‐12h (fraction excreted in urine)” value [1, 5] was 6.09 (95.30) %. The “Accumulation ratio (based on AUCτ)” value [1, 6] was 1.88 (35.07), the “Fe0‐12h (fraction excreted in urine)” value [1, 6] was 8.20 (27.21) % and the “Accumulation ratio (based on AUCτ)” value [1, 7] was 3.75 (36.01). For the same compound, the “Fe0‐12h (fraction excreted in urine)” value [1, 7] was 8.44 (50.39) %, the “increase of AUC” value ([1]; MAD, 100 to 200 mg dose group) was “more than four‐folds” and the “dose dependence of plasma concentration” value ([1]; MAD, enteric coated tablet, after single and multiple doses) was “dose‐proportional manner”. The “time to steady‐state of plasma concentration” value ([1]; MAD, enteric coated tablet, first Helmert contrast with p > 0.05) was 2 days, the Tmax ([1]; median T max after a single dose, MAD, single dose) was 2.5 to 6 h and the Tmax ([1]; median T max,ss, MAD, multiple doses) was 2 to 6 h. The Papp [2] was 7.67 ± 1.06 ×10⁻⁶ cm/s.

Reference: paper PMC10339703 (Clinical and Translational Science, 2023)
